Legend:
[1] = test system: VRSA; set-up: method as in PMID 32195571; details: strain not specified, Fig. 1 legend; MIC against VRSA previously reported; cited from earlier work
[2] = mice, intravenous injection; cited from earlier work
[3] = test system: B. subtilis; assay: Membrane permeabilization assay, propidium iodide uptake; assay type: cell-based; details: exponentially growing B. subtilis, 10 μM, PI uptake
Method: The kinetics of permeabilization of membranes of MRSA and B. subtilis by the compounds was measured by the uptake of propidium iodide (PI). […] When the membrane integrity is compromised, it enters the cell and fluoresces upon binding to the DNA. Both VanQbiph (4) and VanQAmC10 (8) permeabilized the membrane in a concentration-dependent manner (Fig. S2 ^†). […] They caused gradual permeabilization against the stationary phase cells of MRSA as well (Fig. 2F). The extent of permeabilization was higher for VanQAmC10 (8) than VanQbiph (4) against both the log-phase and stationary-phase bacteria similar to that observed during depolarisation.
50 μL of serially diluted compound was added into 96 well microtiter plates. Freshly drawn, heparanized human blood was centrifuged down to obtain the erythrocytes and re-suspended to 5 vol % in PBS (pH 7.4). […] 100 μL of the supernatant from each well were transferred into fresh microtiter plates, and A540 was measured.
% haemolysis = (A - A0)/(Atotal -A0) × 100, where A is the absorbance of the test well, A 0 the absorbance of the negative controls (without compound), and A total the absorbance of 100 % hemolysis wells (with Triton X -100), all at 540 nm. […]
2 h post incubation with dye, the absorbance was measured at 570 nm using 600 nm as […]
The bactericidal activity of the compounds was evaluated with the time kill kinetics assay. […]

[4] = test system: RAW 264.7 cells; set-up: method as in PMID 32195571; details: cited from earlier work
[5] = test system: VRSA 1 (vancomycin-resistant S. aureus); set-up: method as in PMID 32195571; details: previously reported; cited from earlier work
[6] = test system: A. baumannii; set-up: method as in PMID 32195571; details: cited from earlier work
[7] = test system: carbapenem-resistant A. baumannii; assay: Murine chronic burn-wound infection model; assay type: in vivo, mice; details: 30 mg kg^−1 topically for 5 days; untreated 8 log CFU g^−1
Method: Fig. 6 (A) Propensity of vancomycin and VanQAmC10 to induce resistance in MRSA upon serial exposure to sub-MIC concentrations; (B) (i) experimental design for in vivo efficacy study in a murine thigh infection model, (ii) in vivo efficacy of VanQAmC10 and vancomycin against the multidrug-resistant methicillin-resistant S. aureus (MRSA) (n = 3/dose). Antibiotics were administered intraperitoneally twice at 12 h intervals at a dose of 12 mg kg^−1. (C) (i) Experimental design for in vivo efficacy study in murine burn wound infection model, (ii) in vivo efficacy of VanQAmC10 and colistin against the carbapenem-resistant A. baumannii (n = 5/dose, 1 mouse died in untreated control). VanQAmC10 and colistin were treated topically at 30 mg kg^−1 for 5 days (‘***’ indicates p < 0.0001, ‘**’ indicates p < 0.001, ‘*’ p < 0.05, p = 0.08 (n.s.) for VanQAmC10 with respect to vancomycin).
Further, the efficacy of VanQAmC10 (8) was tested in a chronic burn-wound infection model of A. baumannii.[40] Chronic burn wounds on the back of mice were infected with A. baumannii. […] Infected mice were treated with 30 mg kg^−1 of VanQAmC10 and colistin for five days consecutively. The bacterial load in the untreated group increased to 8 log CFU g^−1 six days post-infection. […] The use of colistin is however limited due to its toxicity and bacteria easily develop resistance to it. […]

[8] = test system: VRE 51559 (vancomycin-resistant E. faecium, VanA phenotype, ATCC 51559); set-up: method as in PMID 32195571; details: previously reported; cited from earlier work
[9] = test system: E. coli; assay: MIC against E. coli; assay type: cell-based; details: Escherichia coli

CCCCCCCCCCNC(=O)C[N+](C)(C)CCCNC(=O)C1NC(=O)C2NC(=O)C(NC(=O)C3NC(=O)C(CC(N)=O)NC(=O)C(NC(=O)C(CC(C)C)NC)C(O)c4ccc(c(Cl)c4)Oc4cc3cc(c4OC3OC(CO)C(O)C(O)C3OC3CC(C)(N)C(O)C(C)O3)Oc3ccc(cc3Cl)C2O)c2ccc(O)c(c2)-c2c(O)cc(O)cc21 (stereo not drawn) [VanQAmC10 (8)]
MIC against VRSA [1]: 1.6 µM
LD50 [2]: 70 mg/kg
time to membrane permeabilization [3]: ≤ 4 min
concentration up to which non-toxic [4]: 40 µM
Minimum inhibitory concentration, VRSA 1 [5]: 3.1 µM
resistance induction in A. baumannii [6]: does not induce resistance
lower bacterial load as compared to the untreated mice [7]: 2.2 log CFU g^−1
Minimum inhibitory concentration, VRE 51559 [8]: 4 µM
MIC [9]: 16 µM
